Columns and labels:
[1] = taken orally in pill form or capsule form; cited from earlier work
[2] = biological target: T1, CYP1A2 (Homo sapiens, UniProt P05177); settings: in vivo; cited from earlier work
T1 sequence (P05177 1-516): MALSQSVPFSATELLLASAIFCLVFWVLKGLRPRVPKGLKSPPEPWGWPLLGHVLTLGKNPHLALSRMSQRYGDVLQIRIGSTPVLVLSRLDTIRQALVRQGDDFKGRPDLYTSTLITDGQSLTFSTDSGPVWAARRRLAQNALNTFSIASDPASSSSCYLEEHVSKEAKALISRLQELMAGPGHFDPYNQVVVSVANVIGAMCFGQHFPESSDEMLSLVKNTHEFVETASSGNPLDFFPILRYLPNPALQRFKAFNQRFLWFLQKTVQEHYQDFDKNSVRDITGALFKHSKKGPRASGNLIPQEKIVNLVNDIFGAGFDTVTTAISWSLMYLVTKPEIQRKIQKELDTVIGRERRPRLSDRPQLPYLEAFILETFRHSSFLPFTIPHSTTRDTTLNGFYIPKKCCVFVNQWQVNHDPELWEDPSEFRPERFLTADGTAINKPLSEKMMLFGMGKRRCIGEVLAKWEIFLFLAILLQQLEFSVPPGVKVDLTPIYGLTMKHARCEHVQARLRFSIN

[3] = Dissolution of melatonin in liquid glycerin; assay type: physicochemical; settings: at least 250 mg melatonin per milliliter glycerin
Procedure: At block 304, the method 300 includes combining melatonin with liquid glycerin, which is also termed glycerol and/or glycerine. The melatonin may be dry and/or powered, and is typically in a crystalized state. As noted above, in an exemplary embodiment, at least 250 mg of melatonin is added per milliliter of glycerin.
Next, at block 308 of the method 300, the melatonin and glycerin mixture is heated to approximately 76.6° C. (170° F.). Moreover, in some embodiments, the melatonin and glycerin mixture is stirred during the heating process.
As shown in block 404, first the method 400 includes mixing melatonin with liquid glycerin. The melatonin may be dry and/or powered, and is typically in a crystalized state. As noted above, in an exemplary embodiment, at least 250 mg of melatonin is added per milliliter of glycerin.
Next, at block 408 of the method 400, the melatonin and glycerin mixture is heated to approximately 76.6° C. (170° F.). Moreover, in some embodiments, the melatonin and glycerin mixture is stirred during the heating process.

[4] = cited from earlier work
[5] = Recrystallization of melatonin on cooling in food-grade solvents; assay type: physicochemical; settings: dissolved by heating then cooled
Excerpt: During research of the dissolvable strip 100, several food-grade solvents were identified having a sufficient solubility of melatonin including glycerin, ethanol, oleic acid, and propylene glycol. When heated, each of these solvents is capable of dissolving crystalized melatonin. […] Whereas, as noted above, glycerin incorporates well into the strip 100 at levels up to about 2% to 5%, is compatible with the lipid shell 124, and prevents recrystallization of the melatonin contained by the lipid shell 124.

| dissolution of melatonin in glycerin ([3]; heated to approximately 76.6° C. and stirred) | recrystallization of melatonin when cooled ([5]; solvent ethanol) | recrystallization of melatonin when cooled ([5]; solvent oleic acid) | recrystallization of melatonin when cooled ([5]; solvent propylene glycol) | SMILES | fraction absorbed into the body [1] | melatonin in the blood removed during each pass through the liver [2] | melatonin removed from the bloodstream by liver and kidneys [2] | dissolution of melatonin in glycerin ([3]; room temperature (25° C.)) | solubility in water [4] | recrystallization of melatonin when cooled ([5]; solvent liquid glycerin) |
| --- | --- | --- | --- | --- | --- | --- | --- | --- | --- | --- |
| – | – | – | – | COc1ccc2[nH]cc(CCNC(C)=O)c2c1 [non-solubilized melatonin] | about 15% | – | – | – | – | – |
| all of the melatonin dissolves | recrystallized | recrystallized | recrystallized | COc1ccc2[nH]cc(CCNC(C)=O)c2c1 [melatonin, N-acetyl-5-methoxy tryptamine] | – | 30%-50% | 30-50% | only a portion of the melatonin dissolves | only slightly soluble in water | recrystallized in each of the solvents except for the liquid glycerin |
